# From US8247211B2, “Glycopeptide antibiotics” (American Cyanamid Company, priority 2001, dated 2012)
# Columns and labels:
# [1] = test system: Staphylococcus aureus-SMITH (GC 4543); experiment: Acute lethal infection in mice (ED50); format: in vivo; details: female CD-1 mice, intraperitoneal challenge, intravenous dose 30 min. after infection, 7 day survival ratios
# Outline: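 ED50 derived from pooled 7-day survival in three separate experiments, five mice per dose level. Single intravenous dose 30 min after intraperitoneal infection of female CD-1 mice with enough bacteria to kill untreated animals in 24-48 h.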
# Streptococcus sp. = experiment: In vitro antibacterial evaluation: minimum inhibitory concentration (MIC), broth dilution method; format: cell-based; details: 18 hours at 35° C.
# Outline: (§1)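 NCCLS M7-A2 broth dilution; Muller-Hinton II […]; 5×10^5 CFU/mL; 64-0.06 μg/mL. MIC = lowest concentration with no growth.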
# Staphylococcus sp. = experiment: as above; format: cell-based
# Outline: as §1
# Escherichia coli = experiment: as above; format: cell-based; details: 18 hours at 35° C.
# Outline: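 Test strains, among them recent clinical isolates carrying methicillin, penicillin and/or vancomycin resistance, were inoculated at 5×10^5 CFU/mL. A broth dilution series spanning 64-0.06 μg/mL in Muller-Hinton II […] (NCCLS M7-A2) defined the MIC as the lowest growth-inhibiting concentration.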
# Enterococcus sp. = experiment: as above; format: cell-based; details: 18 hours at 35° C.
# Outline: as §1
# [2] = Anatomic pathology (heart and kidney histopathology) in mice; format: in vivo, CD-1 mice; details: 20 mg/kg intravenously daily for 9 days, microscopic histopathology on day 10
# Outline: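 Histopathology on H&E-stained, paraffin-embedded sections, subjectively scored (slight, mild, moderate, marked, severe) relative to untreated controls. Dosing: glycopeptide antibiotics 20 mg/kg intravenously once daily ×9 days in 20-day-old CD-1 mice, n=5 per group including vehicle.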
# [3] = Streptococcus agalactiae (GC 4564)
# [4] = Streptococcus pneumoniae (ATCC 6301)
# [5] = Streptococcus pneumoniae (GC 1894)
# [6] = Streptococcus pneumoniae (GC 4565)
# [7] = Streptococcus pyogenes (GC 4563)
# [8] = broth dilution, inoculum 5×10^5 CFU/mL
# [9] = Enterococcus faecalis (ATCC 29212)
# [10] = Enterococcus faecalis (GC 2242)
# [11] = Enterococcus faecalis (GC 2691)
# [12] = Enterococcus faecalis (GC 3059)
# [13] = Enterococcus faecalis (GC 4552)
# [14] = Enterococcus faecalis (GC 4553)
# [15] = Enterococcus faecalis (GC 4554)
# [16] = Enterococcus faecalis (GC 6189)
structure (smiles),measurement,setting,value
CC(c1ccccc1)C1NC(=O)CNC(=O)C(CO)NC(=O)C(CC2CNC(=N)N2C2OC(CO)C(O)C(O)C2O)NC(=O)C(CC2CNC(=N)N2)NC(=O)C(Cc2ccc(OC3OC(CO)C(OC4OC5COC6(OC5C(O)C4O)C4CC5CC(C4)CC6C5)C(O)C3O)cc2)NC1=O (centres unmarked) [Example 219],"median effective dose (ED50), Staphylococcus aureus-SMITH (GC 4543)",[1],0.5 mg/kg
same,MIC Streptococcus agalactiae (GC 4564),Streptococcus sp.; [3],2 µg/mL
same,MIC Streptococcus pneumoniae (ATCC 6301),Streptococcus sp.; [4],0.5 µg/mL
same,MIC Streptococcus pneumoniae (GC 1894),Streptococcus sp.; [5],1 µg/mL
same,MIC Streptococcus pneumoniae (GC 4565),Streptococcus sp.; [6],2 µg/mL
same,MIC Streptococcus pyogenes (GC 4563),Streptococcus sp.; [7],2 µg/mL
same,MIC Streptococcus agalactiae (GC 4564),Streptococcus sp.; [8],2 µg/mL
same,MIC Streptococcus pneumoniae (ATCC 6301),Streptococcus sp.; [8],0.5 µg/mL
same,MIC Streptococcus pneumoniae (GC 1894),Streptococcus sp.; [8],1 µg/mL
same,MIC Streptococcus pneumoniae (GC 4565),Streptococcus sp.; [8],2 µg/mL
same,MIC Streptococcus pyogenes (GC 4563),Streptococcus sp.; [8],2 µg/mL
same,MIC Staphylococcus aureus (ATCC 29213),Staphylococcus sp.; strain ATCC 29213,4 µg/mL
same,MIC Staphylococcus aureus (GC 1131),Staphylococcus sp.; strain GC 1131,4 µg/mL
same,MIC Staphylococcus aureus (GC 3051),Staphylococcus sp.; strain GC 3051,2 µg/mL
same,MIC Staphylococcus aureus (GC 3053),Staphylococcus sp.; strain GC 3053,2 µg/mL
same,MIC Staphylococcus aureus (GC 4541),Staphylococcus sp.; strain GC 4541,2 µg/mL
same,MIC Staphylococcus aureus (GC 4542),Staphylococcus sp.; strain GC 4542,2 µg/mL
same,MIC Staphylococcus aureus-SMITH (GC 4543),Staphylococcus sp.; strain GC 4543,2 µg/mL
same,MIC Staphylococcus aureus (GC 4544),Staphylococcus sp.; strain GC 4544,8 µg/mL
same,MIC Staphylococcus aureus (GC 4545),Staphylococcus sp.; strain GC 4545,2 µg/mL
same,MIC Staphylococcus haemolyticus (GC 4546),Staphylococcus sp.; strain GC 4546,2 µg/mL
same,MIC Coagulase Negative Staphylococcus (GC 4547),Staphylococcus sp.; strain GC 4547,2 µg/mL
same,MIC Coagulase Negative Staphylococcus (GC 4548),Staphylococcus sp.; strain GC 4548,2 µg/mL
same,MIC Coagulase Negative Staphylococcus (GC 4549),Staphylococcus sp.; strain GC 4549,2 µg/mL
same,MIC Coagulase Negative Staphylococcus (GC 4551),Staphylococcus sp.; strain GC 4551,4 µg/mL
same,MIC Coagulase Negative Staphylococcus (GC 6257),Staphylococcus sp.; strain GC 6257,1 µg/mL
same,MIC Escherichia coli (ATCC 25922),Escherichia coli,64 µg/mL
same,MIC Escherichia coli (GC 4559),Escherichia coli,64 µg/mL
same,MIC Escherichia coli (GC 4560),Escherichia coli,4 µg/mL
same,MIC Enterococcus avium (GC 4558),Enterococcus sp.; Enterococcus avium (GC 4558),4 µg/mL
same,MIC Enterococcus faecalis (ATCC 29212),Enterococcus sp.; [9],16 µg/mL
same,MIC Enterococcus faecalis (GC 2242),Enterococcus sp.; [10],8 µg/mL
same,MIC Enterococcus faecalis (GC 2691),Enterococcus sp.; [11],8 µg/mL
same,MIC Enterococcus faecalis (GC 3059),Enterococcus sp.; [12],16 µg/mL
same,MIC Enterococcus faecalis (GC 4552),Enterococcus sp.; [13],8 µg/mL
same,MIC Enterococcus faecalis (GC 4553),Enterococcus sp.; [14],8 µg/mL
same,MIC Enterococcus faecalis (GC 4554),Enterococcus sp.; [15],8 µg/mL
same,MIC Enterococcus faecalis (GC 6189),Enterococcus sp.; [16],8 µg/mL
same,MIC Enterococcus faecium (GC 2243),Enterococcus sp.; Enterococcus faecium (GC 2243),8 µg/mL
same,MIC Enterococcus faecium (GC 4556),Enterococcus sp.; Enterococcus faecium (GC 4556),8 µg/mL
same,MIC Enterococcus faecium (GC 4557),Enterococcus sp.; Enterococcus faecium (GC 4557),4 µg/mL
same,MIC Enterococcus avium (GC 4558),Enterococcus sp.; [8],4 µg/mL
same,MIC Enterococcus faecalis (ATCC 29212),Enterococcus sp.; [8],16 µg/mL
same,MIC Enterococcus faecalis (GC 2242),Enterococcus sp.; [8],8 µg/mL
same,MIC Enterococcus faecalis (GC 2691),Enterococcus sp.; [8],8 µg/mL
same,MIC Enterococcus faecalis (GC 3059),Enterococcus sp.; [8],16 µg/mL
same,MIC Enterococcus faecalis (GC 4552),Enterococcus sp.; [8],8 µg/mL
same,MIC Enterococcus faecalis (GC 4553),Enterococcus sp.; [8],8 µg/mL
same,MIC Enterococcus faecalis (GC 4554),Enterococcus sp.; [8],8 µg/mL
same,MIC Enterococcus faecalis (GC 6189),Enterococcus sp.; [8],8 µg/mL
same,MIC Enterococcus faecium (GC 2243),Enterococcus sp.; [8],8 µg/mL
same,MIC Enterococcus faecium (GC 4556),Enterococcus sp.; [8],8 µg/mL
same,MIC Enterococcus faecium (GC 4557),Enterococcus sp.; [8],4 µg/mL
same,"Anatomical Pathology (Day 10), Heart",[2],0
same,"Anatomical Pathology (Day 10), Kidney",[2],+++
"COc1ccc2cc(COC3C(CO)OC(OC4C(CO)OC(Oc5ccc(CC6NC(=O)C(C(C)c7ccccc7)NC(=O)CNC(=O)C(CO)NC(=O)C(CC7CNC(=N)N7C7OC(CO)C(O)C(O)C7O)NC(=O)C(CC7CNC(=N)N7)NC6=O)cc5)C(O)C4O)C(O)C3O)ccc2c1 (stereo not drawn) [Example 245a, Cyclo[3-(2-iminoimidazolidin-4-yl)alanyl-3-(3-hexopyranosyl-2-iminoimidazolidin-4-yl)-alanylserylglycyl-β-methylphenylalanyl-O-[4-O-[4-O-[(6-methoxy-2-naphthyl)methyl]-hexopyranosyl]hexopyranosyl]tyrosyl]]","median effective dose (ED50), Staphylococcus aureus-SMITH (GC 4543)",[1],1 mg/kg
same,MIC Streptococcus agalactiae (GC 4564),Streptococcus sp.; [3],1 µg/mL
same,MIC Streptococcus pneumoniae (ATCC 6301),Streptococcus sp.; [4],0.5 µg/mL
same,MIC Streptococcus pneumoniae (GC 1894),Streptococcus sp.; [5],<0.12 µg/mL
same,MIC Streptococcus pneumoniae (GC 4565),Streptococcus sp.; [6],1 µg/mL
same,MIC Streptococcus pyogenes (GC 4563),Streptococcus sp.; [7],1 µg/mL
same,MIC Streptococcus agalactiae (GC 4564),Streptococcus sp.; [8],1 µg/mL
same,MIC Streptococcus pneumoniae (ATCC 6301),Streptococcus sp.; [8],0.5 µg/mL
same,MIC Streptococcus pneumoniae (GC 1894),Streptococcus sp.; [8],<0.12 µg/mL
same,MIC Streptococcus pneumoniae (GC 4565),Streptococcus sp.; [8],1 µg/mL
same,MIC Streptococcus pyogenes (GC 4563),Streptococcus sp.; [8],1 µg/mL
same,MIC Coagulase Negative Staphylococcus (GC 4547),"Staphylococcus sp.; Coagulase Negative Staphylococcus (GC 4547), 18 hours at 35° C.",2 µg/mL
same,MIC Coagulase Negative Staphylococcus (GC 4548),"Staphylococcus sp.; Coagulase Negative Staphylococcus (GC 4548), 18 hours at 35° C.",1 µg/mL
same,MIC Coagulase Negative Staphylococcus (GC 4549),"Staphylococcus sp.; Coagulase Negative Staphylococcus (GC 4549), 18 hours at 35° C.",0.5 µg/mL
same,MIC Coagulase Negative Staphylococcus (GC 4551),"Staphylococcus sp.; Coagulase Negative Staphylococcus (GC 4551), 18 hours at 35° C.",2 µg/mL
same,MIC Coagulase Negative Staphylococcus (GC 6257),"Staphylococcus sp.; Coagulase Negative Staphylococcus (GC 6257), 18 hours at 35° C.",1 µg/mL
same,MIC Staphylococcus aureus (ATCC 29213),"Staphylococcus sp.; Staphylococcus aureus (ATCC 29213), 18 hours at 35° C.",2 µg/mL
same,MIC Staphylococcus aureus (GC 1131),"Staphylococcus sp.; Staphylococcus aureus (GC 1131), 18 hours at 35° C.",4 µg/mL
same,MIC Staphylococcus aureus (GC 3051),"Staphylococcus sp.; Staphylococcus aureus (GC 3051), 18 hours at 35° C.",2 µg/mL
same,MIC Staphylococcus aureus (GC 3053),"Staphylococcus sp.; Staphylococcus aureus (GC 3053), 18 hours at 35° C.",2 µg/mL
same,MIC Staphylococcus aureus (GC 4541),"Staphylococcus sp.; Staphylococcus aureus (GC 4541), 18 hours at 35° C.",2 µg/mL
same,MIC Staphylococcus aureus (GC 4542),"Staphylococcus sp.; Staphylococcus aureus (GC 4542), 18 hours at 35° C.",2 µg/mL
same,MIC Staphylococcus aureus (GC 4544),"Staphylococcus sp.; Staphylococcus aureus (GC 4544), 18 hours at 35° C.",2 µg/mL
same,MIC Staphylococcus aureus (GC 4545),"Staphylococcus sp.; Staphylococcus aureus (GC 4545), 18 hours at 35° C.",2 µg/mL
same,MIC Staphylococcus aureus-SMITH (GC 4543),"Staphylococcus sp.; Staphylococcus aureus-SMITH (GC 4543), 18 hours at 35° C.",2 µg/mL
same,MIC Staphylococcus haemolyticus (GC 4546),"Staphylococcus sp.; Staphylococcus haemolyticus (GC 4546), 18 hours at 35° C.",1 µg/mL
same,MIC Escherichia coli (ATCC 25922),Escherichia coli,32 µg/mL
same,MIC Escherichia coli (GC 4559),Escherichia coli,32 µg/mL
same,MIC Escherichia coli (GC 4560),Escherichia coli,2 µg/mL
same,MIC Enterococcus avium (GC 4558),Enterococcus sp.; Enterococcus avium (GC 4558),4 µg/mL
same,MIC Enterococcus faecalis (ATCC 29212),Enterococcus sp.; [9],8 µg/mL
same,MIC Enterococcus faecalis (GC 2242),Enterococcus sp.; [10],4 µg/mL
same,MIC Enterococcus faecalis (GC 2691),Enterococcus sp.; [11],8 µg/mL
same,MIC Enterococcus faecalis (GC 3059),Enterococcus sp.; [12],4 µg/mL
same,MIC Enterococcus faecalis (GC 4552),Enterococcus sp.; [13],8 µg/mL
same,MIC Enterococcus faecalis (GC 4553),Enterococcus sp.; [14],4 µg/mL
same,MIC Enterococcus faecalis (GC 4554),Enterococcus sp.; [15],8 µg/mL
same,MIC Enterococcus faecalis (GC 6189),Enterococcus sp.; [16],8 µg/mL
same,MIC Enterococcus faecium (GC 2243),Enterococcus sp.; Enterococcus faecium (GC 2243),4 µg/mL
same,MIC Enterococcus faecium (GC 4556),Enterococcus sp.; Enterococcus faecium (GC 4556),4 µg/mL
same,MIC Enterococcus faecium (GC 4557),Enterococcus sp.; Enterococcus faecium (GC 4557),2 µg/mL
same,MIC Enterococcus faecalis (GC 2242),Enterococcus sp.; [8],4 µg/mL
same,MIC Enterococcus faecalis (GC 2691),Enterococcus sp.; [8],8 µg/mL
same,MIC Enterococcus faecalis (GC 3059),Enterococcus sp.; [8],4 µg/mL
same,"Anatomical Pathology (Day 10), Heart",[2],+
same,"Anatomical Pathology (Day 10), Kidney",[2],+++
